#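 These data come from cells grown in 96-well plates and exposed to compound for 48 hours at five concentrations. GI50: concentration for 50% inhibition of growth. At the TGI there is no net growth.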
# Legend:
# Experiment in all cases: NCI anticancer screen, dose series, 48 h
# [1] = test system: 786-0 renal
# [2] = test system: A498 renal
# [3] = test system: A549 NSCLC
# [4] = test system: ACHN renal
# [5] = test system: BT-549 breast
# [6] = test system: CAKI-1 renal
# [7] = test system: CCRF-CEM leukemia
# [8] = test system: COLO 205 colon
# [9] = test system: DU-145 prostate
# [10] = test system: EKVX NSCLC
# [11] = test system: HCC-2998 colon
# [12] = test system: HCT-116 colon
# [13] = test system: HCT-15 colon
# [14] = test system: HL-60(TB) leukemia
# [15] = test system: HOP-62 NSCLC
# [16] = test system: HOP-92 NSCLC
# [17] = test system: HS 578T breast
# [18] = test system: HT29 colon
# [19] = test system: IGROV1 ovarian
# [20] = test system: K-562 leukemia
# [21] = test system: KM12 colon
# [22] = test system: LOX IMVI melanoma
# [23] = test system: M14 melanoma
# [24] = test system: MALME-3M melanoma
# [25] = test system: MCF7 breast
# [26] = test system: MDA-MB-231 breast
# [27] = test system: MDA-MB-435
# [28] = test system: MDA-MB-468 breast
# [29] = test system: MOLT-4 leukemia
# [30] = test system: NCI-H226 lung
# [31] = test system: NCI-H23 lung
# [32] = test system: NCI-H460 lung
# [33] = test system: NCI-H522 lung
# [34] = test system: NCI/ADR-RES ovarian
# [35] = test system: OVCAR-3 ovarian
# [36] = test system: OVCAR-4 ovarian
# [37] = test system: OVCAR-5 ovarian
# [38] = test system: OVCAR-8 ovarian
# [39] = test system: PC-3 prostate
# [40] = test system: RPMI-8226 leukemia
# [41] = test system: RXF 393 renal
# [42] = test system: SF-268 CNS
# [43] = test system: SF-295 CNS
# [44] = test system: SF-539 CNS
# [45] = test system: SK-MEL-2 melanoma
# [46] = test system: SK-MEL-28 melanoma
# [47] = test system: SK-MEL-5 melanoma
# [48] = test system: SK-OV-3 ovarian
# [49] = test system: SN12C renal
# [50] = test system: SNB-19 CNS
# [51] = test system: SNB-75 CNS
# [52] = test system: SR leukemia
# [53] = test system: SW-620 colon
# [54] = test system: T-47D breast
# [55] = test system: TK-10 renal
# [56] = test system: U251 CNS
# [57] = test system: UACC-257 melanoma
# [58] = test system: UACC-62 melanoma
# [59] = test system: UO-31 renal
compound,measurement,setting,value
COc1cnc2c(c1)C(=O)c1c-2n(CCCNCCO)c(=O)c2cc(F)ccc12,GI50,[1],277 nM
same,TGI,[1],962 nM
same,GI50,[2],1440 nM
same,TGI,[2],7880 nM
same,GI50,[3],198 nM
same,TGI,[3],1100 nM
same,GI50,[4],175 nM
same,TGI,[4],465 nM
same,GI50,[5],969 nM
same,TGI,[5],4040 nM
same,GI50,[6],220 nM
same,TGI,[6],1680 nM
same,GI50,[7],206 nM
same,TGI,[7],966 nM
same,GI50,[8],838 nM
same,TGI,[8],2770 nM
same,GI50,[9],287 nM
same,TGI,[9],3590 nM
same,GI50,[10],1210 nM
same,TGI,[10],5140 nM
same,GI50,[11],549 nM
same,TGI,[11],1700 nM
same,GI50,[12],183 nM
same,TGI,[12],657 nM
same,GI50,[13],328 nM
same,TGI,[13],1560 nM
same,GI50,[14],190 nM
same,TGI,[14],1370 nM
same,GI50,[15],207 nM
same,TGI,[15],605 nM
same,GI50,[16],1660 nM
same,TGI,[16],7260 nM
same,GI50,[17],2020 nM
same,TGI,[17],12400 nM
same,GI50,[18],300 nM
same,TGI,[18],1380 nM
same,GI50,[19],510 nM
same,TGI,[19],2680 nM
same,GI50,[20],280 nM
same,TGI,[20],6050 nM
same,GI50,[21],872 nM
same,TGI,[21],10500 nM
same,GI50,[22],167 nM
same,TGI,[22],502 nM
same,GI50,[23],589 nM
same,TGI,[23],2410 nM
same,GI50,[24],851 nM
same,TGI,[24],2560 nM
same,GI50,[25],101 nM
same,TGI,[25],1700 nM
same,GI50,[26],1640 nM
same,TGI,[26],4100 nM
same,GI50,[27],1270 nM
same,TGI,[27],4520 nM
same,GI50,[28],160 nM
same,TGI,[28],351 nM
same,GI50,[29],174 nM
same,TGI,[29],757 nM
same,GI50,[30],452 nM
same,TGI,[30],1320 nM
same,GI50,[31],259 nM
same,TGI,[31],785 nM
same,GI50,[32],198 nM
same,TGI,[32],908 nM
same,GI50,[33],420 nM
same,TGI,[33],1830 nM
same,GI50,[34],678 nM
same,TGI,[34],2580 nM
same,GI50,[35],819 nM
same,TGI,[35],6510 nM
same,GI50,[36],1710 nM
same,TGI,[36],8650 nM
same,GI50,[37],661 nM
same,TGI,[37],2420 nM
same,GI50,[38],555 nM
same,TGI,[38],2790 nM
same,GI50,[39],667 nM
same,TGI,[39],10500 nM
same,GI50,[40],250 nM
same,TGI,[40],1880 nM
same,GI50,[41],885 nM
same,TGI,[41],2540 nM
same,GI50,[42],1200 nM
same,TGI,[42],11000 nM
same,GI50,[43],306 nM
same,TGI,[43],1230 nM
same,GI50,[44],326 nM
same,TGI,[44],1220 nM
same,GI50,[45],2360 nM
same,TGI,[45],4360 nM
same,GI50,[46],1920 nM
same,TGI,[46],5690 nM
same,GI50,[47],477 nM
same,TGI,[47],1640 nM
same,GI50,[48],668 nM
same,TGI,[48],2450 nM
same,GI50,[49],287 nM
same,TGI,[49],1560 nM
same,GI50,[50],666 nM
same,TGI,[50],8060 nM
same,GI50,[51],778 nM
same,TGI,[51],5310 nM
same,GI50,[52],97.1 nM
same,GI50,[53],367 nM
same,TGI,[53],2610 nM
same,GI50,[54],269 nM
same,TGI,[54],1550 nM
same,GI50,[55],1470 nM
same,TGI,[55],4180 nM
same,GI50,[56],268 nM
same,TGI,[56],3240 nM
same,GI50,[57],2130 nM
same,TGI,[57],7970 nM
same,GI50,[58],496 nM
same,TGI,[58],1830 nM
same,GI50,[59],195 nM
same,TGI,[59],1170 nM
Cc1ccc(Cl)cc1NC(=O)N/C(N)=N/c1nc2ccccc2s1,GI50,[1],64.1 nM
same,TGI,[1],4020 nM
same,GI50,[2],12400 nM
same,TGI,[2],25800 nM
same,GI50,[3],115 nM
same,TGI,[3],4500 nM
same,GI50,[4],79.4 nM
same,TGI,[4],6370 nM
same,GI50,[5],183 nM
same,TGI,[5],1370 nM
same,GI50,[6],45.6 nM
same,TGI,[6],6660 nM
same,GI50,[7],37.1 nM
same,TGI,[7],7470 nM
same,GI50,[8],67.9 nM
same,TGI,[8],285 nM
same,GI50,[9],47.1 nM
same,TGI,[9],2850 nM
same,GI50,[10],109 nM
same,TGI,[10],15200 nM
same,GI50,[11],67.6 nM
same,TGI,[11],1110 nM
same,GI50,[12],37.1 nM
same,TGI,[12],696 nM
same,GI50,[13],40.5 nM
same,TGI,[13],3000 nM
same,GI50,[14],30.9 nM
same,TGI,[14],843 nM
same,GI50,[15],50.8 nM
same,TGI,[15],2980 nM
same,GI50,[16],1170 nM
same,TGI,[16],10900 nM
same,GI50,[17],34.3 nM
same,TGI,[17],22700 nM
same,GI50,[18],28.9 nM
same,TGI,[18],118 nM
same,GI50,[19],99.2 nM
same,TGI,[19],2860 nM
same,GI50,[20],34.6 nM
same,TGI,[20],> 33900 nM
same,GI50,[21],45.5 nM
same,TGI,[21],7120 nM
same,GI50,[22],61.9 nM
same,TGI,[22],1520 nM
same,GI50,[23],25.6 nM
same,TGI,[23],523 nM
same,GI50,[24],54.4 nM
same,TGI,[24],12000 nM
same,GI50,[25],199 nM
same,TGI,[25],11400 nM
same,GI50,[26],39.2 nM
same,TGI,[26],278 nM
same,GI50,[27],20.3 nM
same,TGI,[27],43.5 nM
same,GI50,[28],217 nM
same,TGI,[28],650 nM
same,GI50,[29],60.3 nM
same,TGI,[29],8400 nM
same,GI50,[30],187 nM
same,TGI,[30],2550 nM
same,GI50,[31],45.2 nM
same,TGI,[31],3570 nM
same,GI50,[32],39.1 nM
same,TGI,[32],1320 nM
same,GI50,[33],24.7 nM
same,TGI,[33],88.3 nM
same,GI50,[34],23 nM
same,TGI,[34],54.9 nM
same,GI50,[35],36.8 nM
same,TGI,[35],1330 nM
same,GI50,[36],1580 nM
same,TGI,[36],16300 nM
same,GI50,[37],131 nM
same,TGI,[37],4960 nM
same,GI50,[38],43.8 nM
same,TGI,[38],2080 nM
same,GI50,[39],55.1 nM
same,TGI,[39],11300 nM
same,GI50,[40],42.5 nM
same,TGI,[40],6190 nM
same,GI50,[42],493 nM
same,TGI,[42],26600 nM
same,GI50,[43],29.9 nM
same,TGI,[43],1300 nM
same,GI50,[44],22.2 nM
same,TGI,[44],54.7 nM
same,GI50,[45],95 nM
same,TGI,[45],941 nM
same,GI50,[46],608 nM
same,TGI,[46],19900 nM
same,GI50,[47],33.2 nM
same,TGI,[47],136 nM
same,GI50,[48],62.4 nM
same,TGI,[48],4730 nM
same,GI50,[49],64.1 nM
same,TGI,[49],2440 nM
same,GI50,[50],66.5 nM
same,TGI,[50],15200 nM
same,GI50,[51],125 nM
same,TGI,[51],9290 nM
same,GI50,[52],51.3 nM
same,GI50,[53],44.5 nM
same,TGI,[53],14400 nM
same,GI50,[54],1320 nM
same,TGI,[54],53200 nM
same,GI50,[55],4950 nM
same,TGI,[55],16600 nM
same,GI50,[56],37 nM
same,TGI,[56],3670 nM
same,GI50,[57],6470 nM
same,TGI,[57],33200 nM
same,GI50,[58],46.7 nM
same,TGI,[58],5530 nM
same,GI50,[59],59.3 nM
same,TGI,[59],10200 nM

# Reference: PubChem BioAssay (NCI)
